Reference: patent US10112906B2, “1-aryl-3-alkylpyrazole insecticides” (E. I. DU PONT DE NEMOURS AND COMPANY, priority 2013, dated 2018)

Tests used:
Type in all cases: in vivo
[1] = tested on: fall armyworm (Spodoptera frugiperda (J. E. Smith)); assay: Test B: control of fall armyworm, foliar spray on corn (maize) plant; conditions: 1-day-old larvae, assessed after 6 days
Method: (§1) Test compounds were formulated using a solution containing 10% acetone, 90% water and 300 ppm X-77® Spreader Lo-Foam Formula non-ionic surfactant containing alkylarylpolyoxyethylene, free fatty acids, glycols and isopropanol (Loveland Industries, Inc. Greeley, Colo., USA). The formulated compounds were applied in 1 mL of liquid through a SUJ2 atomizer nozzle with ⅛ JJ custom body (Spraying Systems Co. Wheaton, Ill., USA) positioned 1.27 cm (0.5 inches) above the top of each test unit. Test compounds were sprayed at the rates indicated, and each test was replicated three times.
For evaluating control of fall armyworm (Spodoptera frugiperda (J. E. Smith)) the test unit consisted of a small open container with a 4-5-day-old corn (maize) plant inside. This was pre-infested with 10-15 1-day-old larvae on a piece of insect diet.
(§2) Test compounds were formulated and sprayed at 250 and/or 50 ppm. After spraying of the formulated test compound, the test units were maintained in a growth chamber for 6 days at 25° C. and 70% relative humidity. Plant feeding damage was then visually assessed based on foliage consumed, and larvae were assessed for mortality.

[2] = tested on: diamondback moth (Plutella xylostella (L.)); assay: Test A: control of diamondback moth, foliar spray on mustard plant; conditions: neonate larvae, assessed after 6 days
Method: as §1
For evaluating control of diamondback moth (Plutella xylostella (L.)) the test unit consisted of a small open container with a 12-14-day-old mustard plant inside. This was pre-infested with ˜50 neonate larvae that were dispensed into the test unit via corn cob grits using an inoculator. The larvae moved onto the test plant after being dispensed into the test unit.
as §2, with “compound, each test unit was allowed to dry for 1 hour and then a black, screened cap was placed on top. The” for “compound, the”, “were held for 6 days” for “were maintained”, “chamber” for “chamber for 6 days”

[3] = tested on: potato leafhopper (Empoasca fabae (Harris)); assay: Test D: control of potato leafhopper through contact and/or systemic means; conditions: 144 h, sprayed at 250 ppm, Soleil bean plant, adults, assessed after 6 days
Method: as §1
For evaluating control of potato leafhopper (Empoasca fabae (Harris)) through contact and/or systemic means, the test unit consisted of a small open container with a 5-6-day-old Soleil bean plant (primary leaves emerged) inside. White sand was added to the top of the soil, and one of the primary leaves was excised prior to application of the test compound.
Test compounds were formulated and sprayed at 250 and/or 50 ppm. After spraying of the formulated test compound, the test units were allowed to dry for 1 hour before they were post-infested with 5 potato leafhoppers (18-to-21-day-old adults). A black, screened cap was placed on the top of the test unit, and the test units were held for 6 days in a growth chamber at 20° C. and 70% relative humidity. Each test unit was then visually assessed for insect mortality.

| Compound | control efficacy (40% or less feeding damage and/or 100% mortality) ([1]; sprayed at 50 ppm) | control efficacy (40% or less feeding damage and/or 100% mortality) ([1]; sprayed at 250 ppm) | control efficacy (40% or less feeding damage and/or 100% mortality) ([2]; sprayed at 50 ppm) | control efficacy (40% or less feeding damage and/or 100% mortality) ([2]; sprayed at 250 ppm) | mortality at 250 ppm [3] |
| --- | --- | --- | --- | --- | --- |
| 2-[3-cyclohexyl-4-[[4-(trifluoromethyl)-1-piperidinyl]methyl]-1H-pyrazol-1-yl]-4-(trifluoromethyl)pyridine [Compound 23] | very good to excellent levels of control efficacy | very good to excellent levels of control efficacy | very good to excellent levels of control efficacy | very good to excellent levels of control efficacy |  |
| N#CC1CCN(Cc2cn(-c3ccc(Cl)c(Cl)c3)nc2Cc2ccccc2F)CC1 [Compound 1] |  |  | very good to excellent levels of control efficacy |  |  |
| N#CC1CCN(Cc2cn(-c3ccc(Cl)c(Cl)c3)nc2Cc2ccc(F)cc2)CC1 [Compound 2] |  |  | very good to excellent levels of control efficacy |  |  |
| N#CC1CCN(Cc2cn(-c3ccc(Cl)cc3)nc2C=CCl)CC1 [Compound 9] | very good to excellent levels of control efficacy | very good to excellent levels of control efficacy |  |  |  |
| N#CC1CCN(Cc2cn(-c3ccc(Cl)c(Cl)c3)nc2C2CC2)CC1 [Compound 12] |  |  | very good to excellent levels of control efficacy |  |  |
| CC(=O)N[C@H]1CCN(Cc2cn(-c3ccc(Cl)c(Cl)c3)nc2C2CC2)C1 [Compound 13] |  |  | very good to excellent levels of control efficacy |  |  |
| CCc1nn(-c2ccc(Cl)c(Cl)c2)cc1CN1CCC(C#N)CC1 [Compound 14] |  |  | very good to excellent levels of control efficacy |  |  |
| C=Cc1nn(-c2ccc(Cl)c(Cl)c2)cc1CN1CCC(C#N)CC1 [Compound 15] |  |  | very good to excellent levels of control efficacy |  |  |
| N#CC1CCN(Cc2cn(-c3ccc(Cl)c(Cl)c3)nc2C2CCCCC2)CC1 [Compound 19] | very good to excellent levels of control efficacy | very good to excellent levels of control efficacy |  |  |  |
| O=C(NC1CCN(Cc2cn(-c3ccc(Cl)c(Cl)c3)nc2C2CCCCC2)C1)C1CC1 (stereo not shown) [Compound 20] |  | very good to excellent levels of control efficacy |  | very good to excellent levels of control efficacy |  |
| Cc1nn(-c2ccc(Cl)c(Cl)c2)cc1CN1CCC(C#N)CC1 [Compound 21] |  |  | very good to excellent levels of control efficacy | very good to excellent levels of control efficacy |  |
| Cc1nn(-c2ccc(Cl)c(Cl)c2)cc1CN1CCC(NC(=O)C2CC2)C1 (stereo not shown) [Compound 22] |  |  | very good to excellent levels of control efficacy | very good to excellent levels of control efficacy |  |
| FC(F)(F)C1CCN(Cc2cn(-c3ccc(Cl)c(Cl)c3)nc2C2CCC2)CC1 [Compound 28] | very good to excellent levels of control efficacy | very good to excellent levels of control efficacy | very good to excellent levels of control efficacy | very good to excellent levels of control efficacy |  |
| C[Si](C)(C)C#Cc1nn(-c2ccc(Cl)c(Cl)c2)cc1CN1CCC(C#N)CC1 [Compound 29] | very good to excellent levels of control efficacy |  |  |  |  |
| C#Cc1nn(-c2ccc(Cl)c(Cl)c2)cc1CN1CCC(C#N)CC1 [Compound 31] |  |  | very good to excellent levels of control efficacy |  |  |
| N#CC1CCN(Cc2cn(-c3ccc(Cl)c(Cl)c3)nc2C#Cc2ccccc2)CC1 [Compound 32] |  |  | very good to excellent levels of control efficacy |  |  |
| N#CC1CCN(Cc2cn(-c3cc(C(F)(F)F)ccn3)nc2C2CC2)CC1 [Compound 35] | very good to excellent levels of control efficacy | very good to excellent levels of control efficacy | very good to excellent levels of control efficacy | very good to excellent levels of control efficacy |  |
| FC(F)(F)C1CCN(Cc2cn(-c3ccc(Cl)cn3)nc2C2CCCC2)CC1 [Compound 36] | very good to excellent levels of control efficacy | very good to excellent levels of control efficacy | very good to excellent levels of control efficacy | very good to excellent levels of control efficacy |  |
| FC(F)(F)C1CCN(Cc2cn(-c3cc(Cl)ccn3)nc2C2CCCC2)CC1 [Compound 37] | very good to excellent levels of control efficacy | very good to excellent levels of control efficacy | very good to excellent levels of control efficacy | very good to excellent levels of control efficacy |  |
| N#CC1CCN(Cc2cn(-c3cc(Cl)ccn3)nc2C2CCCC2)CC1 [Compound 38, 1-[[1-(4-chloro-2-pyridinyl)-3-cyclopentyl-1H-pyrazol-4-yl]methyl]-4-piperidinecarbonitrile] | very good to excellent levels of control efficacy | very good to excellent levels of control efficacy | very good to excellent levels of control efficacy | very good to excellent levels of control efficacy | ≥ 80% |
| N#CC1CCN(Cc2cn(-c3cc(C(F)(F)F)ccn3)nc2C2CCC2)CC1 [Compound 46, 1-[[3-cyclobutyl-1-[4-(trifluoromethyl)-2-pyridinyl]-1H-pyrazol-4-yl]methyl]-4-piperidinecarbonitrile] | very good to excellent levels of control efficacy | very good to excellent levels of control efficacy | very good to excellent levels of control efficacy | very good to excellent levels of control efficacy | ≥ 80% |
